This is an account of results in ChEMBL document CHEMBL1201862, “PubChem BioAssay data set” (2004).

Molecules are shown by their SMILES.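 Five compound concentrations were applied to cells in 96-well plates for 48 hours; endpoints were derived by simple linear interpolation of the resulting dose-response curve. GI50 is the concentration that inhibits growth by half.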 Activity calls are given as the source filed them. No stated cut-off is given here; in the data, active = GI50 up to about 1.1 µM and inactive = higher.

Holding throughout (experiment): NCI tumour cell line growth inhibition, 48 h
Assay [1] concerns SNB-75.
For assay [2], the system named is U-251.
Assay [3] relates to NCI-H460.
In assay [4] the test system is 786-0.
For assay [5], the system named is OVCAR-5.
The subject of assay [6] is HT-29.
For assay [7], the system named is SF-295.
Assay [8] concerns HOP-92.
Assay [9] has as its system OVCAR-4.
Assay [10] relates to SNB-78.
The subject of assay [11] is A498.
Assay [12] concerns UO-31.
Assay [13] deals with K562.
Assay [14] deals with LOX IMVI.
Assay [15] concerns Malme-3M.
The subject of assay [16] is SK-MEL-28.
Assay [17] relates to OVCAR-8.
Assay [18] deals with NCI-H226.

As for `N=c1n(CC(=O)NC23CC4CC(CC(C4)C2)C3)c2ccccc2n1CC(=O)NC12CC3CC(CC(C3)C1)C2`, the GI50 is 2.29 µM (inactive) in assay [1]; 1.66 µM (inactive) in assay [2]; 1.78 µM (inactive) in assay [3]; 1.8 µM (inactive) in [4]; 1.69 µM (inactive) in assay [5]; 1.8 µM (inactive) in assay [6]. For the same compound, the GI50 in assay [7] was 2.06 µM (inactive); in assay [8], 1.65 µM (inactive); in [9] it was 1.79 µM (inactive); in assay [10], 2.91 µM (inactive); in [11], 1.7 µM (inactive); in [12], 13.2 µM (inactive). Besides, the GI50 in assay [13] was 2.82 µM (inactive); in assay [14] it was 1.63 µM (inactive); in assay [15], 1.67 µM (inactive); in [16] it was 1.79 µM (inactive); in [17], 1.68 µM (inactive).
On to `CSC(C1c2ccccc2N(C)C2=NC(=O)N(C)C(=O)C21Cl)S(=O)(=O)c1ccc(C)cc1` (stereo not given), for which the GI50 in [1] was 24 µM (inactive); in assay [2], > 100 µM (inactive); in assay [3], > 100 µM (inactive); in assay [4] it was 18.8 µM (inactive); in [5], > 100 µM (inactive); in assay [6], 34.1 µM (inactive). In addition, the GI50 in assay [7] was 33.6 µM (inactive); in assay [8] it was 24.9 µM (inactive); in assay [9], 61.2 µM (inactive); in assay [10], 46.9 µM (inactive); in assay [11], > 100 µM (inactive); in assay [12], 79.8 µM (inactive). In addition, the GI50 in assay [18] was > 100 µM (inactive); in assay [13], 16.7 µM (inactive); in assay [14], 45.8 µM (inactive); in assay [15] it was 40.3 µM (inactive); in assay [16] it was 25 µM (inactive); in [17], 21 µM (inactive).
Turning to `CS(=O)(=O)NNS(=O)(=O)c1ccc(Br)cc1`, the GI50 in [1] was 87.7 µM (inactive); in assay [2], > 100 µM (inactive); in assay [3], > 100 µM (inactive); in assay [4] it was > 100 µM (inactive); in [5] it was > 100 µM (inactive); in assay [6] it was > 100 µM (inactive). Besides, the GI50 in assay [8], in [9], in assay [10], in assay [11], in assay [12] and in assay [18] was > 100 µM (inactive) in each case. The GI50 in assay [13], in assay [14], in assay [15], in assay [16] and in [17] was > 100 µM (inactive) in each case.
`COc1cc(C2c3cc4c(cc3[C@@H](Nc3ccc(N(C)C)cc3)[C@H]3COC(=O)C23)OCO4)cc(OC)c1O` (stereo not given in full): the GI50 was 0.324 µM (active) in [1]; 0.149 µM (active) in [2]; 0.0214 µM (active) in assay [3]; 0.228 µM (active) in [4]; 0.818 µM (active) in assay [5]; 1.13 µM (inactive) in [6]. Also, the GI50 was 0.122 µM (active) in assay [7]; 0.36 µM (active) in assay [8]; 9.35 µM (inactive) in assay [9]; 4.31 µM (inactive) in assay [10]; 0.551 µM (active) in assay [11]; 0.607 µM (active) in assay [12]. The GI50 in [18] is 0.0545 µM (active); in [13], 0.537 µM (active); in assay [14] it was 0.817 µM (active); in [15], 1.41 µM (inactive); in [16], 3.79 µM (inactive); in assay [17] it was 0.587 µM (active).
In the case of `Cc1cccc(O)c(=O)c1`, the GI50 is 83.6 µM (inactive) in [1]; 21.4 µM (inactive) in [2]; 31.7 µM (inactive) in [3]; 9.12 µM (inactive) in assay [4]; 47.6 µM (inactive) in assay [5]; 19 µM (inactive) in assay [6]. In addition, the GI50 was 39.7 µM (inactive) in assay [7]; 89.3 µM (inactive) in [8]; 45.8 µM (inactive) in assay [9]; > 100 µM (inactive) in assay [10]; 54 µM (inactive) in assay [11]; 73.3 µM (inactive) in assay [12]. Also, the GI50 in [18] is 3.3 µM (inactive); in assay [14], 7.03 µM (inactive); in assay [15], 31 µM (inactive); in assay [16], 49.4 µM (inactive); in assay [17], 19.1 µM (inactive).
As for `C(=C1\CCC/C(=C/c2ccccc2)C1=NNc1ccccc1)/c1ccccc1`, the GI50 in assay [1] was 87.3 µM (inactive); in assay [2], > 100 µM (inactive); in [3], > 100 µM (inactive); in assay [4], > 100 µM (inactive); in assay [5], > 100 µM (inactive); in assay [6] it was > 100 µM (inactive). Further, the GI50 in [7], in assay [8], in [9], in [10], in assay [11] and in assay [12] was > 100 µM (inactive) in each case. In addition, the GI50 in assay [13], in [14], in [15], in assay [16] and in assay [17] was > 100 µM (inactive) in each case.
For `CCOC(=O)c1ccc(-n2c(SCC)nc3sc(C)c(C)c3c2=O)cc1`, the GI50 in assay [1] was 36.7 µM (inactive); in assay [2], > 100 µM (inactive); in assay [3] it was > 100 µM (inactive); in assay [4] it was 85.9 µM (inactive); in assay [5] it was > 100 µM (inactive); in assay [6], > 100 µM (inactive). For the same compound, the GI50 is > 100 µM (inactive) in [7]; 50.7 µM (inactive) in assay [8]; 53.8 µM (inactive) in assay [9]; > 100 µM (inactive) in assay [10]; 25.2 µM (inactive) in assay [11]; > 100 µM (inactive) in assay [12]. Further, the GI50 is > 100 µM (inactive) in assay [18]; > 100 µM (inactive) in [13]; > 100 µM (inactive) in assay [14]; > 100 µM (inactive) in assay [15]; > 100 µM (inactive) in assay [16]; 68.7 µM (inactive) in [17].
As to `CC(=O)OC1(C)C(=O)OC1(C)C(C)=O` (stereo not given), the GI50 in assay [1], in assay [2], in assay [4], in assay [5], in assay [6] and in assay [7] was > 100 µM (inactive) in each case. Moreover, the GI50 in assay [8], in assay [9], in assay [10], in assay [11], in [12] and in [18] was > 100 µM (inactive) each time. Further, the GI50 in assay [13], in assay [14], in assay [15], in assay [16] and in assay [17] was > 100 µM (inactive) in each case.
Turning to `O=c1c2cc(Br)cc(Br)c2nc(CCCl)n1-c1ccc(O)c([N+](=O)[O-])c1`, the GI50 in [1] is 19.8 µM (inactive); in assay [2] it was 18.4 µM (inactive); in assay [3], 21 µM (inactive); in assay [4] it was 18.3 µM (inactive); in assay [5], 18.9 µM (inactive); in assay [6], 20.6 µM (inactive). In addition, the GI50 in assay [7] was 24.1 µM (inactive); in assay [8], 24 µM (inactive); in assay [9] it was 15.5 µM (inactive); in assay [10], 32.4 µM (inactive); in assay [11], 25.8 µM (inactive); in [12] it was 19.7 µM (inactive). In addition, the GI50 in [18] was 19.6 µM (inactive); in assay [13], 33.3 µM (inactive); in [15] it was 19.1 µM (inactive); in [16], 19.7 µM (inactive); in assay [17], 22.9 µM (inactive).
For `Cc1cc(C)c(C(=O)c2no[n+]([O-])c2C(=O)c2c(C)cc(C)c(Br)c2C)c(C)c1Br`, the GI50 in [1] is 9.31 µM (inactive); in assay [2], 12.5 µM (inactive); in assay [3], 14.2 µM (inactive); in [4], 15.1 µM (inactive); in [5] it was 16 µM (inactive); in assay [6], 12.3 µM (inactive). For the same compound, the GI50 in assay [7] is 16.9 µM (inactive); in assay [8], 6.19 µM (inactive); in [9] it was 10.2 µM (inactive); in assay [10], 18.6 µM (inactive); in assay [11], 17.6 µM (inactive); in [12], 7.67 µM (inactive). Moreover, the GI50 in [18] is 16.1 µM (inactive); in assay [15], 14 µM (inactive); in assay [16], 14.4 µM (inactive); in assay [17], 10.9 µM (inactive).
Regarding `COc1cc2ccnc(-c3c4ccccc4c(N)c4c(OC)c(OC)ccc34)c2cc1OC`, the GI50 in [2] was 3.37 µM (inactive); in assay [3], 1.79 µM (inactive); in assay [4] it was 2.65 µM (inactive); in assay [6], 2.64 µM (inactive); in assay [7], 3.18 µM (inactive); in [8], 1.79 µM (inactive). In addition, the GI50 was 1.97 µM (inactive) in assay [9]; 3.66 µM (inactive) in [10]; 3.02 µM (inactive) in [11]; 3.18 µM (inactive) in assay [12]; 2.07 µM (inactive) in assay [18]; 1.55 µM (inactive) in [13]. The GI50 is 1.52 µM (inactive) in [14], 3.32 µM (inactive) in assay [15], 2.36 µM (inactive) in assay [16] and 3.6 µM (inactive) in [17].
With `CC(=O)OCC1OC(n2cccnc2=O)C(OC(C)=O)C1OC(C)=O` (stereo not given), the GI50 in assay [1], in assay [2], in [3], in [4], in [5] and in assay [6] was > 100 µM (inactive) throughout. The GI50 in assay [8], in assay [9], in [10], in assay [11], in assay [12] and in assay [18] was > 100 µM (inactive) each time. Moreover, the GI50 in assay [13], in assay [14], in assay [15], in assay [16] and in assay [17] was > 100 µM (inactive) throughout.
